This passage reports AC50 results from patent US20250171438A1 (Agios Pharmaceuticals, Inc., priority 2022, published 2025).

This assay deals with T1, human PAH with the R408W mutation (Homo sapiens, UniProt P00439, R408W).
T1 construct: expressed in transfected cells
T1 sequence (P00439 1-452 R408W): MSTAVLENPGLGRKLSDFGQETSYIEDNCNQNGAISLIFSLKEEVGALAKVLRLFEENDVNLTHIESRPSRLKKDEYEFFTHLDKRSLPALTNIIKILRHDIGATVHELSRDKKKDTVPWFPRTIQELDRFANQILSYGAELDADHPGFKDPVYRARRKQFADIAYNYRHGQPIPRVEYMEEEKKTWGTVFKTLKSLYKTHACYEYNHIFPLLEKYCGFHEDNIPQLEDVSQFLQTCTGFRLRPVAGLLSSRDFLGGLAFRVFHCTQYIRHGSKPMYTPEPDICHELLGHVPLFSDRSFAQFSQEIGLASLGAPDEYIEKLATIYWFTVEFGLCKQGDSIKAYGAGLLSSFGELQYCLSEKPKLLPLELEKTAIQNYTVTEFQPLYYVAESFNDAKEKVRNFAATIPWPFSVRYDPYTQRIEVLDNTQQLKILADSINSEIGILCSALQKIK
The experiment in a line: Cell Based Phenylalanine Flux Assay. The conditions noted are these: A375 cells expressing human R408W PAH; 24 hrs compound incubation; 13C-Tyrosine by LC-MS; average where tested multiple times; read-out: AC50.

As for `CC(C)(O)c1nc(C(F)(F)F)c(C(=O)N2CC3(CC3)c3[nH]cnc3[C@H]2c2nc3ccccc3s2)o1` [Example 1679, (S)-(4′-(benzo[d]thiazol-2-yl)spiro[cyclopropane-1,7′-imidazo[4,5-c]pyridin]-5′(1′H,4′H,6′H)-yl)(2-(2-hydroxypropan-2-yl)-4-(trifluoromethyl)oxazol-5-yl)methanone], the AC50 was in the range of 500 to 1000 nM. Next, `CC(C)(O)c1nc(C(F)(F)F)c(C(=O)N2CC3(CC3)c3[nH]cnc3[C@@H]2c2nc3ccccc3s2)o1` [Example 1680, (R)-(4′-(benzo[d]thiazol-2-yl)spiro[cyclopropane-1,7′-imidazo[4,5-c]pyridin]-5′(1′H,4′H,6′H)-yl)(2-(2-hydroxypropan-2-yl)-4-(trifluoromethyl)oxazol-5-yl)methanone]: 1000 to 5000 nM; `O=C(c1oc(-c2ccccn2)nc1C(F)(F)F)N1CC2(CC2)c2[nH]cnc2[C@H]1c1nc2ccccc2s1` [Example 1681, (S)-(4′-(benzo[d]thiazol-2-yl)spiro[cyclopropane-1,7′-imidazo[4,5-c]pyridin]-5′(1′H,4′H,6′H)-yl)(2-(pyridin-2-yl)-4-(trifluoromethyl)oxazol-5-yl)methanone]: 500 to 1000 nM; `O=C(c1oc(-c2ccccn2)nc1C(F)(F)F)N1CC2(CC2)c2[nH]cnc2[C@@H]1c1nc2ccccc2s1` [Example 1682, (R)-(4′-(benzo[d]thiazol-2-yl)spiro[cyclopropane-1,7′-imidazo[4,5-c]pyridin]-5′(1′H,4′H,6′H)-yl)(2-(pyridin-2-yl)-4-(trifluoromethyl)oxazol-5-yl)methanone]: 1000 to 5000 nM.

For `O=C(c1nnc(-c2ccccn2)o1)N1CC2(CC2)c2[nH]cnc2[C@@H]1c1nc2ccccc2s1` [Example 1683, (R)-(4′-(benzo[d]thiazol-2-yl)spiro[cyclopropane-1,7′-imidazo[4,5-c]pyridin]-5′(1′H,4′H,6′H)-yl)(5-(pyridin-2-yl)-1,3,4-oxadiazol-2-yl)methanone], the AC50 lay within 1000 to 5000 nM.

Regarding `O=C(c1nnc(-c2ccccn2)o1)N1CC2(CC2)c2[nH]cnc2[C@H]1c1nc2ccccc2s1` [Example 1684, (S)-(4′-(benzo[d]thiazol-2-yl)spiro[cyclopropane-1,7′-imidazo[4,5-c]pyridin]-5′(1′H,4′H,6′H)-yl)(5-(pyridin-2-yl)-1,3,4-oxadiazol-2-yl)methanone], the AC50 is less than 500 nM. Regarding `Cc1nnc(C(=O)N2CC3(CC3)c3[nH]cnc3[C@@H]2c2nc3ccccc3s2)o1` [Example 1685, (R)-(4′-(benzo[d]thiazol-2-yl)spiro[cyclopropane-1,7′-imidazo[4,5-c]pyridin]-5′(1′H,4′H,6′H)-yl)(5-methyl-1,3,4-oxadiazol-2-yl)methanone], the half-maximal activity concentration (AC50) lay within 1000 to 5000 nM. Turning to `Cc1nnc(C(=O)N2CC3(CC3)c3[nH]cnc3[C@H]2c2nc3ccccc3s2)o1` [Example 1686, (S)-(4′-(benzo[d]thiazol-2-yl)spiro[cyclopropane-1,7′-imidazo[4,5-c]pyridin]-5′(1′H,4′H,6′H)-yl)(5-methyl-1,3,4-oxadiazol-2-yl)methanone], the AC50 fell in the range of 500 to 1000 nM. Next, `O=C(N1CCc2[nH]cnc2[C@H]1c1nc2ccccc2s1)C(F)(F)C1(O)CCC1` [Example 1687]: less than 500 nM; `O=C(N1CCc2[nH]cnc2[C@@H]1c1nc2ccccc2s1)C(F)(F)C1(O)CCC1` [Example 1688, (R)-1-(4-(benzo[d]thiazol-2-yl)-6,7-dihydro-1H-imidazo[4,5-c]pyridin-5(4H)-yl)-2,2-difluoro-2-(1-hydroxycyclobutyl)ethanone]: 1000 to 5000 nM. As for `O=C(N1CC(F)C1)N1CCc2[nH]cnc2[C@H]1c1nc2ccccc2s1` [Example 1689], the AC50 is less than 500 nM.

On to `O=C(N1CC(F)C1)N1CCc2[nH]cnc2[C@@H]1c1nc2ccccc2s1` [Example 1690, (R)-(4-(benzo[d]thiazol-2-yl)-6,7-dihydro-1H-imidazo[4,5-c]pyridin-5(4H)-yl)(3-fluoroazetidin-1-yl)methanone], for which the AC50 lay within 1000 to 5000 nM. Regarding `O=C(N1CCC1)N1CCc2[nH]cnc2[C@H]1c1nc2ccccc2s1` [Example 1691, (S)-azetidin-1-yl(4-(benzo[d]thiazol-2-yl)-6,7-dihydro-1H-imidazo[4,5-c]pyridin-5(4H)-yl)methanone], the AC50 is less than 500 nM.

For the compound `O=C(N1CCC1)N1CCc2[nH]cnc2[C@@H]1c1nc2ccccc2s1` [Example 1692, (R)-azetidin-1-yl(4-(benzo[d]thiazol-2-yl)-6,7-dihydro-1H-imidazo[4,5-c]pyridin-5(4H)-yl)methanone], the AC50 was in the range of 1000 to 5000 nM. As for `Cc1nc(CN(C)C)oc1C(=O)N1CCc2[nH]cnc2[C@H]1c1nc2ccccc2s1` [Example 1693], the AC50 was in the range of 500 to 1000 nM. For `Cc1nc(CN(C)C)oc1C(=O)N1CCc2[nH]cnc2[C@@H]1c1nc2ccccc2s1` [Example 1694, (R)-(4-(benzo[d]thiazol-2-yl)-6,7-dihydro-1H-imidazo[4,5-c]pyridin-5(4H)-yl)(2-((dimethylamino)methyl)-4-methyloxazol-5-yl)methanone], the AC50 was greater than 5000 nM. Regarding `CC(C)(O)c1nnc(C(=O)N2CC3(CC3)c3[nH]cnc3[C@@H]2c2nc3ccccc3s2)o1` [Example 1695, (R)-(4′-(benzo[d]thiazol-2-yl)spiro[cyclopropane-1,7′-imidazo[4,5-c]pyridin]-5′(1′H,4′H,6′H)-yl)(5-(2-hydroxypropan-2-yl)-1,3,4-oxadiazol-2-yl)methanone], the AC50 is greater than 5000 nM. In the case of `CC(C)(O)c1nnc(C(=O)N2CC3(CC3)c3[nH]cnc3[C@H]2c2nc3ccccc3s2)o1` [Example 1696, (S)-(4′-(benzo[d]thiazol-2-yl)spiro[cyclopropane-1,7′-imidazo[4,5-c]pyridin]-5′(1′H,4′H,6′H)-yl)(5-(2-hydroxypropan-2-yl)-1,3,4-oxadiazol-2-yl)methanone], the AC50 was in the range of 500 to 1000 nM.

In the case of `CC(C)(O)c1nc(C#N)c(C(=O)N2CCc3[nH]cnc3[C@H]2c2nc3ccccc3s2)o1` [Example 1697, (S)-5-(4-(benzo[d]thiazol-2-yl)-4,5,6,7-tetrahydro-1H-imidazo[4,5-c]pyridine-5-carbonyl)-2-(2-hydroxypropan-2-yl)oxazole-4-carbonitrile], the AC50 lay in the range of 500 to 1000 nM. As for `CC(C)(O)c1nc(C#N)c(C(=O)N2CCc3[nH]cnc3[C@@H]2c2nc3ccccc3s2)o1` [Example 1698, (R)-5-(4-(benzo[d]thiazol-2-yl)-4,5,6,7-tetrahydro-1H-imidazo[4,5-c]pyridine-5-carbonyl)-2-(2-hydroxypropan-2-yl)oxazole-4-carbonitrile], the AC50 was greater than 5000 nM. For the compound `N#Cc1nc(NC2CC2)oc1C(=O)N1CCc2[nH]cnc2[C@H]1c1nc2ccccc2s1` [Example 1699, (S)-5-(4-(benzo[d]thiazol-2-yl)-4,5,6,7-tetrahydro-1H-imidazo[4,5-c]pyridine-5-carbonyl)-2-(cyclopropylamino)oxazole-4-carbonitrile], the concentration at half-maximal activity (AC50) was 1000 to 5000 nM. For `Cc1nc(CCCN2CCOCC2)oc1C(=O)N1CCc2[nH]cnc2[C@H]1c1nc2ccccc2s1` [Example 1701], the AC50 is less than 500 nM. For the compound `Cc1nc(CCCN2CCOCC2)oc1C(=O)N1CCc2[nH]cnc2[C@@H]1c1nc2ccccc2s1` [Example 1702, (R)-(4-(benzo[d]thiazol-2-yl)-6,7-dihydro-1H-imidazo[4,5-c]pyridin-5(4H)-yl)(4-methyl-2-(3-morpholinopropyl)oxazol-5-yl)methanone], the AC50 is greater than 5000 nM.

Consider `COCc1ncc(C(=O)N2CCc3[nH]cnc3[C@H]2c2nc3c(F)cccc3s2)s1` [Example 1703, (S)-(4-(4-fluorobenzo[d]thiazol-2-yl)-6,7-dihydro-1H-imidazo[4,5-c]pyridin-5(4H)-yl)(2-(methoxymethyl)thiazol-5-yl)methanone], for which the AC50 is 500 to 1000 nM. Next, `COCc1ncc(C(=O)N2CCc3[nH]cnc3[C@@H]2c2nc3c(F)cccc3s2)s1` [Example 1704, (R)-(4-(4-fluorobenzo[d]thiazol-2-yl)-6,7-dihydro-1H-imidazo[4,5-c]pyridin-5(4H)-yl)(2-(methoxymethyl)thiazol-5-yl)methanone]: 1000 to 5000 nM. Take `N#Cc1nc(N2CCOCC2)oc1C(=O)N1CCc2[nH]cnc2[C@H]1c1nc2ccccc2s1` [Example 1705, (S)-5-(4-(benzo[d]thiazol-2-yl)-4,5,6,7-tetrahydro-1H-imidazo[4,5-c]pyridine-5-carbonyl)-2-morpholinooxazole-4-carbonitrile]: the AC50 is 500 to 1000 nM. Consider `N#Cc1nc(N2CCOCC2)oc1C(=O)N1CCc2[nH]cnc2[C@@H]1c1nc2ccccc2s1` [Example 1706, (R)-5-(4-(benzo[d]thiazol-2-yl)-4,5,6,7-tetrahydro-1H-imidazo[4,5-c]pyridine-5-carbonyl)-2-morpholinooxazole-4-carbonitrile], for which the AC50 was greater than 5000 nM. Consider `O=C(c1oc(N2CCC(F)CC2)nc1C(F)F)N1CCc2[nH]cnc2[C@H]1c1nc2ccccc2s1` [Example 1707], for which the concentration at half-maximal activity (AC50) was less than 500 nM. `O=C(c1oc(N2CCC(F)CC2)nc1C(F)F)N1CCc2[nH]cnc2[C@@H]1c1nc2ccccc2s1` [Example 1708, (R)-(4-(benzo[d]thiazol-2-yl)-6,7-dihydro-1H-imidazo[4,5-c]pyridin-5(4H)-yl)(4-(difluoromethyl)-2-(4-fluoropiperidin-1-yl)oxazol-5-yl)methanone]: the AC50 was less than 500 nM.
